Where a SMILES comes first, the peptide text is derived from it. Bridges are numbered along the chain shown (N, C = ends). Roman numbers before positions name the chains, in order. Primed or numbered codes have the meaning given here. Where no end group is shown, it is not given here. The star is where a group is joined. 5FAM = O=C1OC2(c3ccc(O)cc3Oc3cc(O)ccc32)c2ccc(C(=O)*)cc21; 5FAM″ = 5-carboxyfluorescein label

The values that follow come from patent publication US20120034164A1, “TRUNCATED CAR PEPTIDES AND METHODS AND COMPOSITIONS USING TRUNCATED CAR PEPTIDES” (Sanford-Burnham Medical Research Institute California, priority 2010, published 2012).

Data set [1] has as its system monocrotaline-induced PAH lesions. Nature of the data set: Peptide homing to lungs in monocrotaline-induced PAH rats (anti-FITC immunohistochemistry). Particulars: for accumulation in the kidney: MCT-treated PAH rats and untreated healthy animals; for accumulation of peptide in the PAH lungs: 2 hours after injection. In kind it is in vivo, rat. As to the method:
Monocrotaline (Sigma-Aldrich, St. Louis, Mo.) was dissolved in 0.3 M hydrochloride solution and neutralized with 0.3 M sodium hydroxide solution, and adjusted pH around 7.0. Adult male Sprague-Dawley rats (150-200 g, Harlan Laboratories, Indianapolis, Ind.) were administered with a single subcutaneous injection of monocrotaline solution at a dose of 60 mg/kg body weight, while control rats were administered with 0.9% saline (Bader, M. Rat models of cardiovascular diseases. Methods Mol Biol 597, 403-14 (2010)). Rats were randomly selected and studied for peptide targeting studies on 1, 3, 7, 14 or 21 days after the treatment of monocrotaline.
(§1) The following peptides were labeled with 5-carboxyfluorescein (FAM) and used for the lung targeting studies: CAR, CARSKNKDC (SEQ ID NO:147); VCAM1, CVHSPNKKCGGSK (SEQ ID NO:13); CG7C control CGGGGGGGC (SEQ ID NO:14); CAR mutant (CAR-M), CAQSNNKDC (SEQ ID NO:15). Peptides were dissolved in PBS at the concentrations of 0.5 mg/mL. Hypertensive rats were injected with peptide solution through tail vein (3.3 mg/kg). At 2 hours after the injection, rats were perfused with PBS containing 1% bovine serum albumin under the deep anesthesia and tissues were fixed by systemic perfusion with 10% buffered formalin. The organs were excised and fixed for additional 24 hours and processed for anti-fluorescein immunohistochemistry.
To determine the localization of the peptides, paraffin-embedded tissue sections were immunostained with rabbit anti-fluoroscein isothiocyanate (FITC) antibody (Invitrogen, Carlsbad, Calif.) followed by horseradish peroxidase-labeled anti-rabbit IgG secondary antibody. The peptide localization was then visualized by DAB. Sections were counter stained with hematoxylin to visualize the region of cells. An automated staining system, Discovery XT (Ventana, Tucson, Ariz.) was used for the staining. To examine the co-localization of the peptides with macrophages or alveolar type II cells, tissue sections were doubly stained with rabbit anti-FITC antibody and mouse anti-rat-CD68 antibody; EDI (Serotec, Raleigh, N.C.) or rabbit anti-Prosurfactant Protein C (proSP-C, Millipore, Temecula, Calif.), respectively. For FITC/proSP-C double staining, FITC staining was completed first. The tissues sections were then treated withcitrate buffer (pH 6.0) at 98° C. for 10 min before proceeding to proSP-C staining. Biotinylated species-specific secondary antibodies and alkaline phosphatase-labeled streptavidin (Vector Laboratories, Burlingame, Calif.) were used to visualize macrophages and alveolar type II cells with Permanent Red (Dako, Carpinteria, Calif.).
Images of stained slides were observed and captured with ECLIPSE 90i or 80i microscope with CCD camera DS-5M (Nikon Instruments, Melville, N.Y.). To quantify the targeting efficiency of the peptides to the lung, the immunostained sections were scanned by Aperio Scanscope XT and analyzed using ImageScope software (Aperio Technologies, Vista, Calif.). For the quantification of area and density of peptide staining, the Aperio Color Deconvolution tool was used to compare total peptide positive area and intensity of peptide staining in each animal. The thresholds were set empirically for strong, medium, and weak staining. The area of each level of staining was presented as percent of such area in the total cell area. The total stained area was normalized by hematoxylin stained area of same regions.
A rat model of monocrotaline (MCT)-induced pulmonary arterial hypertension was used for this study. Briefly, male Sprague-Dawley rats (150-200 g, Harlan Laboratories, IN) were administered with a single subcutaneous injection of monocrotaline at 60 mg/kg (Sigma-Aldrich, MO), while control rats administered 0.9% saline. Rats were randomly selected and studied for peptide distribution studies on 1, 3, 7, 14 or 21 days after the treatment of monocrotaline. […]

Another data set deals with 4T1 tumors. Nature of the data set: In vivo tumor homing of FAM-labeled peptides (confocal imaging). Particulars: 200 μL of 1 mM FAM-peptide i.v.
Data set [2] concerns SU5416/hypoxia-induced PAH lesions. Type of data set: in vivo, rat. As to the method:
Adult male Sprague-Dawley rats (approx. 200 g) were injected subcutaneously with SU5416 (20 mg/kg body weight; SUGEN Inc, South San Francisco, Calif.), which was suspended in carboxymethylcellulose (0.5% carboxymethylcellulose sodium, 0.9% sodium chloride, 0.4% polysorbate, 0.9% benzyl alcohol in deionized water). The rats were then exposed to chronic hypoxia in a hypobaric chamber (barometric pressure, 410 mm Hg: inspired O2 tension, 76 mm Hg) for 3 weeks followed by an additional 6 weeks of reexposure to normoxia. Rats were examined at 9 weeks after the injection of SU5416 when they develop severe occlusive pulmonary arterial lesions (Abe, K. et al. Formation of plexiform lesions in experimental severe pulmonary arterial hypertension. Circulation 121, 2747-54 (2010)).
as §1, with “CVHSPNKKCGGSK” left out, “The organs were excised and fixed for additional 24 hours and processed for anti-fluorescein immunohistochemistry.” left out

The next data set relates to mitochondrial membranes. Particulars: at a concentration of 10 μM; cited from earlier work.
Where [3] appears, read: MCT-treated rats, FAM-peptide 3.3 mg/kg i.v.

Method for 4T1 tumors: Mice bearing orthotopic tumors generated with 4T1 mouse breast cells were intravenously injected with the 200 μL of 1 mM fluorescamine (FAM)-conjugated CAR peptide. The circulation time was 1 hour.
Confocal images of sections of the tumor and normal organs from mice injected with the 200 μL of 1 mM FAM-tCAR peptide. The circulation time was 2 hours.
Confocal images of sections of the tumor and normal organs from mice injected with the 200 μL of 1 mM FAM-ARSKNK peptide. The circulation time was 1 hour.
Confocal images of sections of the tumor and normal organs from mice injected with the 200 μL of 1 mM FAM-KNKSRAC-CARSKNK peptide (SEQ ID NO:4). The circulation time was 1 hour.

Regarding `C[C@@H]1NC(=O)[C@@H](NC(=O)c2ccc3c(c2)C(=O)OC32c3ccc(O)cc3Oc3cc(O)ccc32)CSSC[C@@H](C(=O)O)NC(=O)[C@H](CC(=O)O)NC(=O)[C@H](CCCCN)NC(=O)[C@H](CC(N)=O)NC(=O)[C@H](CCCCN)NC(=O)[C@H](CO)NC(=O)[C@H](CCCNC(=N)N)NC1=O` [CAR, CARSKNKDC] (5FAM-CARSKNKDC-OH; disulfide 1-9), the “accumulation in the kidney” value in data set [1] was “accumulation in the kidney was observed”. In addition, the “accumulation in other organs” value in data set [1] (MCT-treated rats, organs other than lung, except kidney) is “absent or very weak”.
For ARSKNK (5FAM-ARSKNK), in the data set with 4T1 tumors (circulation time 1 hour), the “accumulation in tumor tissue” value was “Little ARSKNK peptide accumulated in the tumor tissue” and the “fluorescence in the heart” value was “some fluorescence was detected in the heart”.
Consider “CAQSNNKDC (cysteine pairing not given here; also: labelled with FAM, site not given here) [CAR-M]”, for which, in data set [2] (9 weeks after SU5416, FAM-peptide 3.3 mg/kg i.v., 2 hours), the “accumulation of peptide in PAH lungs / PAH lesion” value was “only negligible signal”. For the same compound, the “detection in remodeled arteries from lung tissue” value in data set [2] (peptide 1 mg/300 g rat i.v. in hemodynamic study, anti-fluorescein staining) is recorded as “not”.
Consider “CARSKNK (also: FAM label, position not given here) [tCAR]”, for which, in the data set with 4T1 tumors (circulation time 2 hours), the “accumulation in normal tissues” value is given as “not detectable accumulation” and the “spreading within tumor tissue” value is listed as “wider spreading within tumor tissue than CAR”.
Regarding “CGGGGGGGC (5FAM-CGGGGGGGC; cysteine pairing not given here) [CG7C]”, in data set [1], the “accumulation in the kidney” value was “also accumulated in the kidney”. For the same compound, in data set [1] (setting [3]), the “accumulation of peptide in the PAH lungs” value was “only very weak staining”.
Consider “CVHSPNKKCGGSK (CVHSPNKKCGGSK-{5FAM″}; cysteine pairing not given here) [VCAM-1 binding peptide]”, for which the “accumulation of peptide in the PAH lungs” value in data set [1] (setting [3]) was “accumulated in the PAH lungs to a similar extent to CAR”. In data set [1] (non-MCT-treated rats, FAM-peptide 3.3 mg/kg i.v., 2 hours), the “accumulation of peptide in healthy normal lung” value is on record as “a fair amount”.
In the case of “D(KLAKLAK)2 (KLAKLAKKLAKLAK; D-amino acids; membrane perturbing molecule)”, the mitochondrial swelling result with mitochondrial membranes is given as “marked mitochondrial swelling”.
“KNKSRAC-CARSKNK (disulfide I:7-II:1 (inferred); not fully specified (N-terminus); also: FAM label, position not given here) [dimeric tCAR]”: in the data set on 4T1 tumors (circulation time 1 hour), the “accumulation in tumor tissue” value is on record as “less tumor accumulation than the monomeric tCAR peptide”.
